Laboratory results: patent US5084082A, “Soybean plants with dominant selectable trait for herbicide resistance” (priority 1990, dated 1992)
Where a name gives a salt, the structure may show the parent alone.

Key:
Format in all cases: in vivo, soybean
[1] = test system: mutant line W20; assay: Test B postemergence cross resistance test; conditions: Glycine max, post-emergence
Description: (§1) In the second postemergence test, six true-breeding resistant mutant lines (W4, W17, W19, W20, W23, and W28) were compared to Williams 82 for cross resistance to a broad range of ALS inhibitors including eight sulfonylureas and three imidazolinones. Two seeds were planted in each 10 cm pot and allowed to grow to the second trifoliolate stage. Pots were not thinned back if both plants were at the proper stage. For each of 11 herbicides, two rates (Table VII) were selected based on previous data: the low rate was expected to cause significant injury (but not death) to Williams 82 and the high rate was expected to severely injure or kill Williams 82. All but a few line x rate treatments were replicated twice.
(§2) In both postemergence tests, plants were returned to the greenhouse after treatment and provided with ample light, moisture, and nutrients to support healthy plant growth. Two to three ratings per pot were recorded over a three-week period and averaged to obtain a single value for each pot For each herbicide, analysis of variance on injury ratings was performed separately. Fisher's least significant difference (LSD) was used to determine the significance of line mean differences at each herbicide rate using the 95% level of confidence.

[2] = test system: mutant line W19; assay: Test B postemergence cross resistance test; conditions: Glycine max, post-emergence
Description: as §1
as §2, with “confidence. […]” for “confidence.”

[3] = test system: mutant line W23; assay: Test B postemergence cross resistance test; conditions: Glycine max, post-emergence
Description: as §1
as §2, with “confidence. […]” for “confidence.”

[4] = test system: mutant line W4; assay: Test B postemergence cross resistance test; conditions: Glycine max, post-emergence
Description: as §1
as §2, with “confidence. […]” for “confidence.”

[5] = test system: Williams 82; assay: Test B postemergence cross resistance test; conditions: Glycine max, post-emergence
Description: as §1
as §2, with “confidence. […]” for “confidence.”

[6] = test system: mutant line W28; assay: Test B postemergence cross resistance test; conditions: Glycine max, post-emergence
Description: as §1
as §2, with “confidence. […]” for “confidence.”

[7] = test system: mutant line W17; assay: Test B postemergence cross resistance test; conditions: Glycine max, post-emergence
Description: as §1
as §2, with “confidence. […]” for “confidence.”

[8] = test system: Williams 82; assay: Test A postemergence herbicide spray, greenhouse pots
Description: (§3) In the first post-emergence test, two true-breeding resistant mutant lines, W19 and W20, were compared to previously isolated tolerant mutants and wild-type Williams 82. Eighteen pots (20 cm diameter) of each soybean line (2 seeds per pot) were planted using a standard sterile potting mix. When the seedlings reached the second trifoliolate stage, plants were thinned back to one plant per pot. Each pot was then sprayed with a specific herbicide treatment using a conveyor belt spray apparatus to emulate field application. The nine different herbicide treatments included one rate (8 g/ha) of Compound 1 and two rates (8 and 32 g/ha) each of four other sulfonylurea herbicides (Compounds 2,3,7 and 8) (see Table VI) using a factorial treatment design with 2 replications.
as §2, with “confidence. […]” for “confidence.”

[9] = test system: Mutant 1-184A; assay: as above
Description: as §3
as §2, with “confidence. […]” for “confidence.”

[10] = test system: mutant W20; assay: as above
Description: as §3
as §2, with “confidence. […]” for “confidence.”

[11] = test system: mutant W19; assay: as above
Description: as §3
as §2, with “confidence. […]” for “confidence.”

[12] = test system: Williams 82; assay: Postemergence herbicide spray test of W4-4 (Table VII-A); conditions: two weeks after treatment
Description: (§4) To investigate this hypothesis, a postemergence herbicide spray test was conducted to compare the reaction of W4-4 to both W20 and wild-type Williams. The applicant was particularly interested in the resistance of W4-4 to herbicide treatments that were injurious to both Williams and W20 in a previous test (Table VII). […] Twenty-four plants each of W4-4, W20, and Williams were planted in separate 10 cm pots and allowed to grow to the second trifoliolate stage. Each pot constituted a single experimental unit receiving a single herbicide treatment. Herbicide treatments (Table VIIA) were applied as described for the first postemergence test and were replicated twice. Control plants were sprayed with the spray carrier solution only (water with 0.25% X77 surfactant). At two weeks after treatment, each plant was rated for % herbicide injury as described in Table VIII. Analysis of variance on injury ratings was performed separately for each herbicide to calculate treatment means and standard errors. Fisher's least significant difference (LSD) was used to determine the significance of line means differences at each herbicide rate using the 95% level of confidence. […]

[13] = test system: Mutant W4-4; assay: as above; conditions: two weeks after treatment
Description: as §4

[14] = test system: mutant W20; assay: as above; conditions: two weeks after treatment
Description: as §4

[15] = test system: W20; assay: Field use rate test (Table VII-B)
[16] = test system: W4-4; assay: Field use rate test (Table VII-B)
[17] = test system: WM82 (Williams); assay: Field use rate test (Table VII-B)

`CCS(=O)(=O)c1cccnc1S(=O)(=O)NC(=O)Nc1nc(OC)cc(OC)n1` [Compound 7, N-[[(4,6-dimethoxy-2-pyrimidinyl)amino]carbonyl]-3-(ethylsulfonyl)-2-pyridinesulfonamide] showed a percent crop injury at 1 g/ha ([1]; W20, 1 g/ha postemergence) of 28%, a percent crop injury at 4 g/ha ([1]; W20, 4 g/ha postemergence) of 66% and a percent soybean crop injury at 1 g/ha ([2]; W19, 1 g/ha postemergence) of 19%. The percent soybean crop injury at 4 g/ha ([2]; W19, 4 g/ha postemergence) was 65%, the percent soybean injury at 1 g/ha ([3]; W23, 1 g/ha postemergence) was 31% and the percent soybean injury at 4 g/ha ([3]; W23, 4 g/ha postemergence) was 60%. For the same compound, the % crop injury at 1 g/ha ([4]; W4, 1 g/ha postemergence) was 21%, the % crop injury at 4 g/ha ([4]; W4, 4 g/ha postemergence) was 69% and the soybean crop injury at 1 g/ha ([5]; Wm 82, 1 g/ha postemergence) was 61%. For the same compound, the soybean crop injury at 4 g/ha ([5]; Wm 82, 4 g/ha postemergence) was 98%, the mean % injury to soybean at 1 g/ha ([6]; W28, 1 g/ha postemergence) was 20% and the mean % injury to soybean at 4 g/ha ([6]; W28, 4 g/ha postemergence) was 54%. It also gave a soybean crop injury (%) at 1 g/ha ([7]; W17, 1 g/ha postemergence) of 16%, a soybean crop injury (%) at 4 g/ha ([7]; W17, 4 g/ha postemergence) of 55% and a mean % injury ([8]; WM 82, 8 g/ha postemergence) of 95%. It also gave a mean % injury ([8]; WM 82, 32 g/ha postemergence) of 93%, a mean % injury ([9]; 8 g/ha postemergence) of 93% and a mean % injury ([9]; 32 g/ha postemergence) of 93%. The mean % injury ([10]; W20, 8 g/ha postemergence) was 65%, the mean % injury ([10]; W20, 32 g/ha postemergence) was 84% and the mean % injury ([11]; W19, 8 g/ha postemergence) was 65%. For the same compound, the mean % injury ([11]; W19, 32 g/ha postemergence) was 80%, the mean % injury ([12]; WM82, 4 g/ha postemergence) was 83% and the mean % injury ([12]; WM82, 16 g/ha postemergence) was 93%. It also gave a mean % injury ([12]; WM82, 32 g/ha postemergence) of 90%, a mean % injury ([13]; W4-4, 4 g/ha postemergence) of 10% and a mean % injury ([13]; W4-4, 16 g/ha postemergence) of 30%. For the same compound, the mean % injury ([13]; W4-4, 32 g/ha postemergence) was 43%, the mean % injury ([14]; W20, 4 g/ha postemergence) was 28% and the mean % injury ([14]; W20, 16 g/ha postemergence) was 43%. It also gave a mean % injury ([14]; W20, 32 g/ha postemergence) of 83%.
In the case of `COC(=O)c1ccccc1S(=O)(=O)NC(=O)N(C)c1nc(C)nc(OC)n1` [Compound 3, Methyl 2-[[[[N-(4-methoxy-6-methyl-1,3,5-triazin-2-yl)N-methylamino]carbonyl]amino]sulfonyl]benzoate], the percent crop injury at 2 g/ha ([1]; W20, 2 g/ha postemergence) is reported as 0%, the percent soybean crop injury at 2 g/ha ([2]; W19, 2 g/ha postemergence) is reported as 5% and the percent soybean crop injury at 8 g/ha ([2]; W19, 8 g/ha postemergence) is reported as 29%. For the same compound, the percent soybean injury at 2 g/ha ([3]; W23, 2 g/ha postemergence) was 0%, the percent soybean injury at 8 g/ha ([3]; W23, 8 g/ha postemergence) was 45% and the % crop injury at 2 g/ha ([4]; W4, 2 g/ha postemergence) was 3%. It also gave a % crop injury at 8 g/ha ([4]; W4, 8 g/ha postemergence) of 18%, a soybean crop injury at 2 g/ha ([5]; Wm 82, 2 g/ha postemergence) of 60% and a soybean crop injury at 8 g/ha ([5]; Wm 82, 8 g/ha postemergence) of 94%. It also gave a mean % injury to soybean at 2 g/ha ([6]; W28, 2 g/ha postemergence) of 8%, a mean % injury to soybean at 8 g/ha ([6]; W28, 8 g/ha postemergence) of 21% and a soybean crop injury (%) at 2 g/ha ([7]; W17, 2 g/ha postemergence) of 0%. For the same compound, the soybean crop injury (%) at 8 g/ha ([7]; W17, 8 g/ha postemergence) was 25%, the mean % injury ([8]; WM 82, 8 g/ha postemergence) was 92% and the mean % injury ([8]; WM 82, 32 g/ha postemergence) was 95%. For the same compound, the mean % injury ([9]; 8 g/ha postemergence) was 90%, the mean % injury ([9]; 32 g/ha postemergence) was 91% and the mean % injury ([10]; W20, 8 g/ha postemergence) was 8%. For the same compound, the mean % injury ([10]; W20, 32 g/ha postemergence) was 63%, the mean % injury ([11]; W19, 8 g/ha postemergence) was 14% and the mean % injury ([11]; W19, 32 g/ha postemergence) was 63%.
In the case of `CC(C)C1(C)N=C(c2ncccc2C(=O)O)NC1=O` (stereo not drawn) [Compound 11, 2-[4,5-dihydro-4-methyl-4-(1-methylethyl)-5-oxo-1H-imidazol-2-yl]-3-pyridinecarboxylic acid, 1-methylethanamine salt], the percent crop injury at 16 g/ha ([1]; W20, 16 g/ha postemergence) is reported as 44%, the percent crop injury at 64 g/ha ([1]; W20, 64 g/ha postemergence) is reported as 61% and the percent soybean crop injury at 16 g/ha ([2]; W19, 16 g/ha postemergence) is reported as 41%. It also gave a percent soybean crop injury at 64 g/ha ([2]; W19, 64 g/ha postemergence) of 60%, a percent soybean injury at 16 g/ha ([3]; W23, 16 g/ha postemergence) of 41% and a percent soybean injury at 64 g/ha ([3]; W23, 64 g/ha postemergence) of 74%. The % crop injury at 16 g/ha ([4]; W4, 16 g/ha postemergence) was 39%, the % crop injury at 64 g/ha ([4]; W4, 64 g/ha postemergence) was 73% and the soybean crop injury at 16 g/ha ([5]; Wm 82, 16 g/ha postemergence) was 49%. The soybean crop injury at 64 g/ha ([5]; Wm 82, 64 g/ha postemergence) was 75%, the mean % injury to soybean at 16 g/ha ([6]; W28, 16 g/ha postemergence) was 45% and the mean % injury to soybean at 64 g/ha ([6]; W28, 64 g/ha postemergence) was 68%. It also gave a soybean crop injury (%) at 16 g/ha ([7]; W17, 16 g/ha postemergence) of 39%, a soybean crop injury (%) at 64 g/ha ([7]; W17, 64 g/ha postemergence) of 61% and a mean % injury ([15]; W20, 8 g/ha) of 20%. It also gave a mean % injury ([15]; W20, 17.5 g/ha) of 30%, a mean % injury ([15]; W20, 35 g/ha) of 60% and a mean % injury ([16]; W4-4, 8 g/ha) of 0%. It also gave a mean % injury ([16]; W4-4, 17.5 g/ha) of 5%, a mean % injury ([16]; W4-4, 35 g/ha) of 25% and a mean % injury ([17]; WM82, 8 g/ha) of 50%. It also gave a mean % injury ([17]; WM82, 17.5 g/ha) of 60%, a mean % injury ([17]; WM82, 35 g/ha) of 75% and a mean % injury ([12]; WM82, 64 g/ha postemergence) of 73%. It also gave a mean % injury ([12]; WM82, 125 g/ha postemergence) of 83%, a mean % injury ([13]; W4-4, 64 g/ha postemergence) of 38% and a mean % injury ([13]; W4-4, 125 g/ha postemergence) of 53%. For the same compound, the mean % injury ([14]; W20, 64 g/ha postemergence) was 48% and the mean % injury ([14]; W20, 125 g/ha postemergence) was 80%.
